pEC50: −log10 of the molar value.

For assay [1], the target named is T1, GST-LXRβ ligand-binding domain (Homo sapiens, UniProt P55055).
T1 construct: amino acids 156-461; NP009052; made in house; host or cells: E. coli
T1 sequence (P55055 156-460 limits assumed): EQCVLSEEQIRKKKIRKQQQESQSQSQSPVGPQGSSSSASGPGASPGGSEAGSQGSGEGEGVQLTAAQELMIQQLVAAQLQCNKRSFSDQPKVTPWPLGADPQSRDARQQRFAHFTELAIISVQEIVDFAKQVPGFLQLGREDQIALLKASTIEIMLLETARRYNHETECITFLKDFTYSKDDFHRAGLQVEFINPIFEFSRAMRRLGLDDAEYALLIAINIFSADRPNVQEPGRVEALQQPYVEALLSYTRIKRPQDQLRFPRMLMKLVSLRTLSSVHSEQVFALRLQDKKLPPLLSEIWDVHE
In words: TR-FRETβ activity assay (NCoA3 coactivator peptide recruitment). It is filed as biochemical. The following applies: 1 μM 24(S)-25-epoxycholesterol prestimulation. The gist of the method: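 Inverse-agonist format, with LXR prestimulated by 1 μM 24(S)-25-epoxycholesterol in pH 6.8 Tris/HCl, 240 mM KCl, BSA and Triton. Ten concentrations from 50 μM to 0.002 μM were equilibrated 1 h at 4° C with 76 nM GST-LXRβ LBD and 400 nM biotin-NCoA3 peptide. Peptide recruitment detected by 665/615 nm TR-FRET.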

In a further assay the target is T2, LXRβ (Homo sapiens, UniProt P55055).
T2 construct: LXRβ (amino acids 156-461); expressed in transfected cells; host or cells: HEK293
T2 sequence (P55055 156-460): T1 sequence (P55055 156-460 limits assumed)
In words: LXR Gal4 reporter transient transfection assay (mammalian two-hybrid, HEK293), LXRβ. It is filed as cell-based. The following applies: ligand-binding domain (LBD) of LXRβ, HEK293; read-out: LBD-M2H Gal4β. On the procedure:
LXRα and LXRβ activity status was determined via detection of interaction with coactivator and corepressor proteins in mammalian two-hybrid experiments (M2H). For this, via transient transfection the full length (FL) proteins of LXRα (amino acids 1-447; NP005684; SEQ ID NO:1) or LXRβ-(amino acids 1-461; NP009052; SEQ ID NO:2) or the ligand-binding domains (LBD) of LXRα (amino acids 155-447 SEQ ID NO:3) or LXRβ (amino acids 156-461; SEQ ID NO:4) were expressed from pCMV-AD (Stratagene) as fusions to the transcriptional activation domain of NFkB. As cofactors, domains of either the steroid receptor coactivator 1 (SRC1; amino acids 552-887; SEQ ID NO:5) or of the corepressor NCoR (amino acids 1906-2312; NP006302; SEQ ID NO:6) were expressed as fusions to the DNA binding domain of the yeast transcription factor GAL4 (from pCMV-BD; Stratagene). Interaction was monitored via activation of a coexpressed Firefly Luciferase Reporter gene under control of a promoter containing repetitive GAL4 response elements (vector pFRLuc; Stratagene). Transfection efficiency was controlled via cotransfection of constitutively active pRL-CMV Renilla reniformis luciferase reporter (Promega). HEK293 cells were grown in minimum essential medium (MEM) with 2 mM L-glutamine and Earle's balanced salt solution supplemented with 8.3% fetal bovine serum, 0.1 mM non-essential amino acids, 1 mM sodium pyruvate, at 37° C. in 5% CO2. 3.5×10^4 cells/well were plated in 96-well cell culture plates in growth medium supplemented with 8.3% fetal bovine serum for 16-20 h to ˜90% confluency. For transfection, medium was taken off and LXR and cofactor expressing plasmids as well as the reporter plasmids are added in 30 μL OPTIMEM/well including polyethylene-imine (PEI) as vehicle. Typical amounts of plasmids transfected/well: pCMV-AD-LXR (5 ng), pCMV-BD-cofactor (5 ng), pFR-Luc (100 ng), pRL-CMV (0.5 ng). Compound stocks were prepared in DMSO, prediluted in MEM to a total volume of 120 μL, and added 4 h after addition of the transfection mixture (final vehicle concentration not exceeding 0.2%). Cells were incubated for additional 16 h, lysed for 10 min in 1×Passive Lysis Buffer (Promega) and Firefly and Renilla luciferase activities were measured sequentially in the same cell extract using buffers containing D-luciferine and coelenterazine, respectively. Measurements of luminescence were done in a BMG-luminometer.
The potencies of Compound 21/3 and its analog, Compound pre-6/3, against LXRα and LXRβ were evaluated in biochemical binding assays, cellular mammalian two-hybrid (M2H) interaction assays evaluating nuclear receptor co-repressor (NCOR) recruitment, and cellular reporter assays evaluating transcriptional activity (Table 5).

As to `N#Cc1cc(F)ccc1-c1c(-c2cccs2)n(S(=O)(=O)c2ccc(Cl)cc2)c2ccccc12` [20/6], the pEC50 was 6.00 to 7.00 in assay [1] and over 7.00 on LXRβ.
For `N#Cc1cscc1-c1c(-c2cccs2)n(S(=O)(=O)c2ccc(Cl)cc2)c2ccccc12` [20/4] the same measures were 5.00 to 6.00 and over 7.00.
As to `COc1ccc(S(=O)(=O)n2c(-c3ccccc3)c(-c3c(C#N)sc4ccccc34)c3ccccc32)cc1` [20/18], at LXRβ, the pEC50 was over 7.00.
For `N#Cc1sccc1-c1c(-c2cccc(CCCC(=O)O)c2)n(S(=O)(=O)c2ccc(Cl)cc2)c2ccccc12` [30/5], the pEC50 in assay [1] is 5.00 to 6.00; on LXRβ it was over 7.00.
As for `N#Cc1sccc1-c1c(-c2cccs2)n(S(=O)(=O)c2ccc(Cl)cc2)c2cc(OCCCCC(=O)O)ccc12` [15/5], the pEC50 in assay [1] is 5.00 to 6.00; at LXRβ, over 7.00.
On the same counts, the results for `N#Cc1sccc1-c1c(-c2ccccc2)n(S(=O)(=O)c2cccnc2)c2ccccc12` [1/41] are 5.00 to 6.00 and over 7.00.
With `N#Cc1sccc1-c1c(-c2cccs2)n(S(=O)(=O)c2ccc(Cl)cc2)c2cc(OCCCC(=O)O)ccc12` [15/4], the pEC50 in assay [1] was 5.00 to 6.00; on LXRβ, over 7.00.
On the same counts, the results for `Cc1ccc(S(=O)(=O)n2c(-c3cccc(C(C)(C)C(=O)O)c3)c(-c3ccsc3C#N)c3ccccc32)cc1` [3/20] are 5.00 to 6.00 and over 7.00.
`Cc1ccc(S(=O)(=O)n2c(-c3ccsc3)c(-c3ccsc3C#N)c3ccccc32)cc1` [1/23]: the results for the pEC50 (in assay [1]; at LXRβ) were 6.00 to 7.00 and over 7.00, respectively.
On the same counts, the results for `COc1ccc(S(=O)(=O)n2c(-c3ccccc3)c(-c3ccc4ncccc4c3C#N)c3ccccc32)cc1` [20/20] are 5.00 to 6.00 and 6.00 to 7.00.
On the same counts, the results for `N#Cc1sccc1-c1c(-c2cc(Cl)cc(C3CC3C(=O)O)c2)n(S(=O)(=O)c2ccc(Cl)cc2)c2ccccc12` (centres unmarked) [30/9] are 5.00 to 6.00 and over 7.00.
Regarding `Cc1cc(C)c(S(=O)(=O)n2c(-c3cccs3)c(-c3ccsc3C#N)c3ccccc32)c(C)c1` [1/26], the pEC50 in assay [1] was 5.00 to 6.00; at LXRβ it was over 7.00.
On the same counts, the results for `Cc1ccc(S(=O)(=O)n2c(-c3ccc(CC(C)(C)C(=O)O)s3)c(-c3ccsc3C#N)c3ccccc32)cc1` [3/16] are 5.00 to 6.00 and 6.00 to 7.00.
For the compound `N#Cc1sccc1-c1c(-c2cccc(OCCC(=O)O)n2)n(S(=O)(=O)c2ccc(Cl)cc2)c2ccccc12` [Compound 31], the pEC50 was 5.00 to 6.00 in assay [1] and 6.00 to 7.00 on LXRβ.
On to `CS(=O)(=O)NC(=O)C1CC1c1cccc(-c2c(-c3ccsc3C#N)c3ccccc3n2S(=O)(=O)c2ccc(Cl)cc2)c1` (centres unmarked) [32/1], for which the pEC50 in assay [1] is 6.00 to 7.00; on LXRβ, over 7.00.
On the same counts, the results for `Cc1ccc(S(=O)(=O)n2c(-c3cccc(C4CC4C(=O)O)c3)c(-c3ccc(F)cc3C#N)c3ccccc32)cc1` (centres unmarked) [30/15] are 5.00 to 6.00 and 6.00 to 7.00.
Consider `Cc1ncc(S(=O)(=O)n2c(-c3ccccc3)c(-c3ccsc3C#N)c3ccccc32)s1` [1/42], for which the values for the pEC50 (in assay [1]; at LXRβ) were 5.00 to 6.00 and over 7.00, respectively.
Turning to `N#Cc1sccc1-c1c(-c2ccc(F)cc2)n(S(=O)(=O)c2ccc(Cl)cc2)c2ccccc12` [26/1], the pEC50 is 5.00 to 6.00 in assay [1] and over 7.00 on LXRβ.
On the same counts, the results for `N#Cc1sccc1-c1c(-c2ccccc2)n(S(=O)(=O)c2ccc(OCC(=O)O)cc2)c2ccccc12` [Compound 27] are 5.00 to 6.00 and 6.00 to 7.00.
For `N#Cc1sccc1-c1c(-c2cccs2)n(S(=O)(=O)c2ccc(CCC(=O)O)cc2)c2ccccc12` [23/1], the pEC50 is 5.00 to 6.00 in assay [1] and over 7.00 at LXRβ.
On to `COc1ccc(S(=O)(=O)n2c(-c3ccccc3)c(C3=C(C#N)c4ccccc4CC3)c3ccccc32)cc1` [20/19], for which the pEC50 in assay [1] is under 5.00; on LXRβ, 6.00 to 7.00.
As to `N#Cc1sccc1-c1c(-c2cccs2)n(S(=O)(=O)c2ccc(Cl)cc2)c2cc(CCC(=O)O)c(O)cc12` [Compound 17], the pEC50 is under 5.00 in assay [1] and 5.00 to 6.00 at LXRβ.
Take `COc1ccc2c(-c3ccsc3C#N)c(-c3cccs3)n(S(=O)(=O)c3ccc(Cl)cc3)c2c1` [1/40]: the pEC50 was 5.00 to 6.00 in assay [1] and over 7.00 at LXRβ.
In the case of `N#Cc1sccc1-c1c(-c2cccs2)n(S(=O)(=O)C2CCCCC2)c2ccccc12` [Compound 24], the pEC50 is 5.00 to 6.00 in assay [1] and over 7.00 at LXRβ.
With `N#Cc1sccc1-c1c(-c2cccc(C3CC3C(=O)O)c2)n(S(=O)(=O)C2CC2)c2ccccc12` (centres unmarked) [30/12], the pEC50 in assay [1] is 5.00 to 6.00; on LXRβ it was 6.00 to 7.00.
Turning to `COc1ccc(S(=O)(=O)n2c(-c3ccccc3)c(-c3cc(C)sc3C#N)c3ccccc32)cc1` [20/23], the pEC50 in assay [1] is 5.00 to 6.00; on LXRβ, 6.00 to 7.00.
With `N#Cc1sccc1-c1c(-c2cccs2)n(S(=O)(=O)c2ccc(Cl)cc2)c2ccc(OCCCCC(=O)O)cc12` [15/2], the pEC50 in assay [1] was under 5.00; at LXRβ it was 6.00 to 7.00.
As for `CS(=O)(=O)c1ccccc1-c1c(-c2cccs2)n(S(=O)(=O)c2ccc(Cl)cc2)c2ccccc12` [20/5], the pEC50 in assay [1] was 5.00 to 6.00; at LXRβ, 6.00 to 7.00.
On the same counts, the results for `N#Cc1c(OCC(=O)O)cccc1-c1c(-c2cccs2)n(S(=O)(=O)c2ccc(Cl)cc2)c2ccccc12` [21/2] are 5.00 to 6.00 and 5.00 to 6.00.
For `N#Cc1sccc1-c1c(-c2cccs2)n(S(=O)(=O)c2ccc(F)cc2)c2ccccc12` [20/11], the pEC50 in assay [1] was 6.00 to 7.00; at LXRβ, over 7.00.
For `N#Cc1nccnc1-c1c(-c2cccs2)n(S(=O)(=O)c2ccc(Cl)cc2)c2ccccc12` [20/7], the pEC50 in assay [1] was 5.00 to 6.00; on LXRβ, over 7.00.
Take `N#Cc1sccc1-c1c(-c2cccs2)n(S(=O)(=O)c2ccc(F)cc2F)c2ccccc12` [20/12]: the pEC50 in assay [1] is 5.00 to 6.00; on LXRβ, over 7.00.
`COc1ccc(S(=O)(=O)n2c(-c3ccccc3)c(-c3ccsc3C)c3ccccc32)cc1` [20/21]: the values for the pEC50 (in assay [1]; on LXRβ) were 5.00 to 6.00 and over 7.00, respectively.
In the case of `N#Cc1sccc1-c1c(-c2cccs2)n(S(=O)(=O)c2ccc(Cl)cc2)c2cc(O)ccc12` [13/1], the pEC50 in assay [1] was 5.00 to 6.00; at LXRβ, over 7.00.
On the same counts, the results for `O=S(=O)(c1ccc(Cl)cc1)n1c(-c2cccs2)c(-c2ccsc2C(F)F)c2ccccc21` [20/3] are 6.00 to 7.00 and over 7.00.
For the compound `Cc1ccc(S(=O)(=O)n2c(-c3cc(C4CC4C(=O)O)cs3)c(-c3ccsc3C#N)c3ccccc32)cc1` (centres unmarked) [3/17], the values for the pEC50 (in assay [1]; on LXRβ) were 5.00 to 6.00 and over 7.00, respectively.
Turning to `NC(=O)c1sccc1-c1c(-c2cccs2)n(S(=O)(=O)c2ccc(Cl)cc2)c2ccccc12` [Compound 22], the pEC50 in assay [1] is 5.00 to 6.00; at LXRβ, 6.00 to 7.00.
Take `O=C(O)c1sccc1-c1c(-c2cccs2)n(S(=O)(=O)c2ccc(Cl)cc2)c2ccccc12` [Compound 21]: the values for the pEC50 (in assay [1]; at LXRβ) were under 5.00 and 5.00 to 6.00, respectively.
As to `COc1ccc(S(=O)(=O)n2c(-c3ccccc3)c(-c3cc4ccccc4nc3C#N)c3ccccc32)cc1` [20/17], on LXRβ, the pEC50 was 6.00 to 7.00.
On the same count and under the same terms, for `Cc1ccc(S(=O)(=O)n2c(-c3cccc(-c4cncc(C(C)(C)C(=O)O)c4)c3)c(-c3ccsc3C#N)c3ccccc32)cc1` [30/3] the value was 6.00 to 7.00.

Values taken from patent publication US20260083704A1, “LXR MODULATORS WITH BICYCLIC CORE MOIETY FOR TREATING DYSLIPIDEMIAS” (OrsoBio, Inc., priority 2022, published 2026).
